Data: PubChem BioAssay (NCI)
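Results reflect a 48-hour exposure of cells in 96-well plates to compound at five concentrations. TGI is the concentration that stops growth completely.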

What was measured:
Assay in all cases: growth of human tumour cells (NCI), 48 h
[1] = system: EKVX NSCLC
[2] = system: RXF 393 renal
[3] = system: UACC-257 melanoma
[4] = system: SF-295 CNS
[5] = system: HL-60(TB) leukemia
[6] = system: 786-0 renal
[7] = system: SN12C renal
[8] = system: RPMI-8226 leukemia
[9] = system: KM12 colon
[10] = system: DMS 273 small cell lung
[11] = system: UO-31 renal
[12] = system: NCI-H522 lung
[13] = system: ACHN renal
[14] = system: HCC-2998 colon
[15] = system: A549 NSCLC
[16] = system: SNB-75 CNS
[17] = system: HT29 colon
[18] = system: MDA-MB-231 breast
[19] = system: NCI/ADR-RES ovarian
[20] = system: MDA-N

| Compound | TGI [1] [µM] | TGI [2] [µM] | TGI [3] [µM] | TGI [4] [µM] | TGI [5] [µM] | TGI [6] [µM] | TGI [7] [µM] | TGI [8] [µM] | TGI [9] [µM] | TGI [10] [µM] | TGI [11] [µM] | TGI [12] [µM] | TGI [13] [µM] | TGI [14] [µM] | TGI [15] [µM] | TGI [16] [µM] | TGI [17] [µM] | TGI [18] [µM] | TGI [19] [µM] | TGI [20] [µM] |
| --- | --- | --- | --- | --- | --- | --- | --- | --- | --- | --- | --- | --- | --- | --- | --- | --- | --- | --- | --- | --- |
| COc1cc(-c2cc(=O)c3c(O)c(OC)c(OC)c(OC)c3o2)ccc1O | > 100 | 48 | > 100 | 60.5 | 61.6 | > 100 | 79 | > 100 | > 100 | 30.5 | > 100 | 44.7 | > 100 | > 100 | 90.7 | – | – | – | – | – |
| CCCc1c[nH]c(-c2ccc(-c3cc(CCC)c(C=O)[nH]3)s2)c1 | – | 36.1 | 31.2 | 33.1 | 49.8 | 27.7 | 30.2 | – | 28.5 | 30.3 | – | 31.1 | 33.5 | – | 17.6 | 34.8 | 18.3 | – | – | – |
| Cc1c(-c2nnc(-c3ccc(Cl)cc3)o2)c(=O)n(-c2ccccc2)n1C | > 100 | > 100 | > 100 | > 100 | > 100 | > 100 | > 100 | > 100 | > 100 | > 100 | > 100 | > 100 | > 100 | > 100 | > 100 | > 100 | > 100 | – | – | – |
| O=C1CCCC/C1=C1\C(=O)Nc2cc(F)ccc21 | > 100 | > 100 | > 100 | > 100 | > 100 | > 100 | > 100 | > 100 | > 100 | > 100 | > 100 | > 100 | > 100 | > 100 | > 100 | > 100 | > 100 | – | – | – |
| O=C(O)Cc1cccc2c1Oc1ccccc1S2 | > 100 | > 100 | > 100 | > 100 | > 100 | > 100 | > 100 | > 100 | > 100 | > 100 | > 100 | – | > 100 | > 100 | > 100 | > 100 | > 100 | – | – | – |
| CC(=O)C1=C(C)Cn2c(=O)c3ccccc3c(=O)n2C1 | > 100 | > 100 | > 100 | > 100 | > 100 | > 100 | > 100 | > 100 | > 100 | > 100 | > 100 | > 100 | > 100 | > 100 | > 100 | > 100 | > 100 | – | – | – |
| N#C/C(=C\c1ccc(O)c(O)c1)C(=O)NC1CCC(CC2CCC(NC(=O)/C(C#N)=C/c3ccc(O)c(O)c3)CC2)CC1 (stereo unspecified) | 45.1 | 12.8 | > 24.3 | 3.55 | 6.09 | 7.37 | 7.23 | > 25.2 | 2.92 | 0.832 | 4.97 | 4.71 | 4.24 | 7.43 | 4.56 | 1.69 | 3 | – | – | – |
| CCCCCCCCOC(CO)CO | – | – | > 100 | > 100 | > 100 | > 100 | > 100 | > 100 | – | > 100 | > 100 | – | > 100 | > 100 | > 100 | – | > 100 | – | – | – |
| CC1(C)CC(=O)C2=C(C1)S/C(=C1/SC3=C(S1)C(=O)CC(C)(C)C3)S2 | > 251 | > 251 | > 251 | > 251 | > 251 | > 251 | > 251 | > 251 | > 251 | > 251 | > 251 | > 251 | > 251 | > 251 | > 251 | > 251 | > 251 | – | – | – |
| CCOC(=O)C(C)(C(=O)OCC)/C(Cl)=C\Cl | > 100 | > 100 | > 100 | > 100 | > 100 | > 100 | > 100 | > 100 | > 100 | – | > 100 | > 100 | > 100 | 0.988 | > 100 | > 100 | > 100 | > 100 | > 100 | > 100 |
| O=C(O)c1ccc([N+]2=Cn3c(nc4ccccc43)C2)cc1 | > 100 | > 100 | > 100 | > 100 | > 100 | > 100 | > 100 | > 100 | > 100 | – | > 100 | > 100 | > 100 | > 100 | > 100 | > 100 | > 100 | > 100 | > 100 | > 100 |
| COc1ccc2c3c(n(Cc4ccccc4)c(=O)c2c1)-c1cc(OC)c(OC)cc1C3C (stereo unspecified) | 52.8 | 48.8 | > 100 | 31.4 | > 100 | 27.7 | > 100 | > 100 | > 100 | 38.6 | > 100 | 47.8 | 43.9 | > 100 | > 100 | 45.4 | > 84.8 | – | – | – |
| CC1(C)OC(C[C@]2(C#N)C[C@H](CCl)OC(C)(C)O2)C[C@@H](C[C@]2(C#N)C[C@H](CCl)OC(C)(C)O2)O1 (stereo partly specified) | > 100 | – | > 100 | > 100 | > 100 | > 100 | > 100 | > 100 | > 100 | > 100 | – | > 100 | > 100 | > 100 | > 100 | > 100 | > 100 | – | – | – |
